Values quoted from earlier work as cited in patent US20060269582A1, “Arthropod repellent comprising extracts and/or parts of the plant vitex agnus-castus” (Alpha-Biocare GmbH, priority 2002, published 2006).

What was measured:
ticks and mites = settings: state of the art
ticks = settings: state of the art

| SMILES | efficiency / activity against ticks and mites (ticks and mites) | activity against ticks (ticks) | duration of protection against ticks (ticks) |
| --- | --- | --- | --- |
| CC1=C(C=O)C(CC=O)CC1 (stereo not shown) [2-(2-formyl-3-methyl-cyclopent-2-enyl)acetaldehyde] | low or even not there |  |  |
| CCN(CC)C(=O)c1cccc(C)c1 [DEET, N,N-diethyl-m-toluamide] | low efficiency |  |  |
| CCC(C)OC(=O)N1CCCCC1CCO (stereo not shown) [Bayrepel] |  | poor | about two |
